These results are taken from patent publication US20120121753A1, “COMPOSITIONS AND METHODS FOR PREVENTION AND TREATMENT OF OBESITY AND OBESITY RELATED METABOLIC SYNDROME” (JINIS BIOPHARMACEUTICALS CO., priority 2009, published 2012).

The test system of one series is Male SD rats. Description: Effect of FARM3 on diet-induced obesity (4 weeks, obese rats). Format: in vivo, rat. The conditions noted are these: 4 weeks of treatment. From the text:
The 3 month old male SD rats were given high-fat feed (described above) for 8 weeks to develop diet-induced obesity with average body weight of 425 g. The rats were randomly divided into groups (n=14 per group) and received fermented yogurt or drug under continued high-fat diet conditions: 3179 group (high fat diet with yogurt fermented by L. acidophilus KCTC 3179 strain), FARM3 group (high fat diet with yogurt fermented by FARM3 mutant), Orlistat™ (high fat diet with Xenical™ in an amount of 200 mg/kg diet).
The 3 month old male SD rats were given high-fat feed for 8 weeks to develop diet-induced obesity with average body weight of 425 g. The diet-induced obese rats were administered daily yogurt fermented with wild-type Lactobacillus 3179 (∘, high fat diet with yogurt fermented by L. acidophilus KCTC3179 strain), yogurt fermented with FARM3 ([…], high fat diet with yogurt fermented by FARM3) or Orlistat™ (Δ, high fat diet with Xenical™ 200 mg/kg diet) under continued high-fat diet condition for 4 weeks.

In series [1] the test system is gastric and pancreatic lipase. The conditions noted are these: background statement; cited from earlier work.

Take `CCCCCCCCCCC[C@@H](C[C@@H]1OC(=O)[C@H]1CCCCCC)OC(=O)[C@H](CC(C)C)NC=O` [Orlistat™, Orlistat]: the oily feces result in the series on Male SD rats is given as “oily feces”. In series [1], the “reduction of dietary fat absorption” value is on record as “approximately 30%”.
